# According to patent US10004715B2, “Entacapone for prevention and treatment of atherosclerosis” (National Institute of Biological Sciences, Beijing, priority 2012, dated 2018):
# What was measured:
# FTO protein = FTO protein (Homo sapiens, UniProt Q9C0B1); assay: FTO demethylation assay (enzymatic inhibition); type: biochemical; settings: substrate 0.5 μM, enzyme 0.1 μM; ssDNA with N6-mA; HPLC-MS/MS; read-out: IC50 against FTO
# Experimental: We measured the compound's inhibition activity in the demethylation reaction catalyzed by FTO. The assay was performed in 100 μl of reaction system containing 50 mM HEPES buffer (pH=7.0), 100 μM of a-KG, 100 μM of (NH4)2Fe(SO4)2, 1 mM of L-ascorbic acid, 50 ng/ml of BSA, 0.5 μM of ssDNA with N^6-mA (5′-ATTGTCA(m^6A)CAGCAGA-3′), and 0.1 μM of FTO protein. The reaction system was incubated at 37° C. for 2 h and stopped by heating at 95° C. for […] ssDNA was digested by nuclease P1 and alkaline phosphatase. The concentrations of N^6-mA and A were analyzed by HPLC-MS/MS. When concentration of substrate and enzyme are 0.5 μM and 0.1 μM, respectively, the measured IC50 value of entacapone against FTO is ˜9 μM (FIG. 2).
# Huh-7 cell line = assay: Cellular triglyceride synthesis inhibition; type: cell-based; settings: Homo sapiens, dyeing method
# Source text: FIG. 3. The dose-dependent inhibition activity of entacapone on triglyceride synthesis in Huh-7 cell line. The X-axis is the compound concentration. The Y-axis is “read-out” of the triglyceride concentration using dyeing method.
# [1] = system: male wistar rats fed with high-fat diet; assay: In vivo anti-obesity efficacy in rats fed high-fat diet; design: species or system rat; settings: 85.6 mg/day by gavage
# Experimental: Total of 23 male wistar rats (6 weeks) were fed with high-fat diet (45% fat, OpenSource Diets D12451), and entacapone (85.6 mg/day) was administered to 12 randomly selected rats by gavage. After 8 weeks, the mean body weight of drug treatment group was about 11% less than that of control group (*p-value<0.05) (FIG. 4).
# [2] = system: Ldlr−/− mice fed western style diet; assay: Atherosclerosis model: Ldlr-deficient mice; type: in vivo, mouse; settings: 300 mg/kg orally blended with diet, after 8 weeks; Oil red O staining; p-value=0.08
# Experimental: Atherosclerosis Model: Ldlr-Deficient Mice. We measured entacapone's anti-atherosclerosis efficacy using Ldlr^−/− mice fed western style diet (20% fat, 0.15% cholesterol), entacapone (300 mg/kg) was orally administered by blending with diet. After 8 weeks, the mean lesion area in aortic sinuses of drug treatment group was 28% less than that of control group (p-value=0.08) (FIG. 8). Therefore, entacapone reduces atherosclerosis symptom, comparing with the control.
# [3] = system: obese male C57BL/6 mice fed with high-fat diet; assay: In vivo anti-obesity efficacy in obese mice; design: species or system mouse; settings: 300 mg/kg orally blended with diet, after 13 weeks; p<0.05
# Experimental: Male C57BL/6 mice were fed with high-fat diet (45% fat, OpenSource Diets D12451) for 8 weeks. Then obese mice with body weight 20% larger than that of mice fed with normal diet (20 mice) were selected for experiments. Entacapone (300 mg/kg) was orally administered to 10 randomly selected obese mice by blending with diet. After 13 weeks, the mean body weight gain of drug treatment group was about 11% less than that of control group (*p-value<0.05) (FIG. 9).
# Sequence of FTO protein (Q9C0B1 whole entry): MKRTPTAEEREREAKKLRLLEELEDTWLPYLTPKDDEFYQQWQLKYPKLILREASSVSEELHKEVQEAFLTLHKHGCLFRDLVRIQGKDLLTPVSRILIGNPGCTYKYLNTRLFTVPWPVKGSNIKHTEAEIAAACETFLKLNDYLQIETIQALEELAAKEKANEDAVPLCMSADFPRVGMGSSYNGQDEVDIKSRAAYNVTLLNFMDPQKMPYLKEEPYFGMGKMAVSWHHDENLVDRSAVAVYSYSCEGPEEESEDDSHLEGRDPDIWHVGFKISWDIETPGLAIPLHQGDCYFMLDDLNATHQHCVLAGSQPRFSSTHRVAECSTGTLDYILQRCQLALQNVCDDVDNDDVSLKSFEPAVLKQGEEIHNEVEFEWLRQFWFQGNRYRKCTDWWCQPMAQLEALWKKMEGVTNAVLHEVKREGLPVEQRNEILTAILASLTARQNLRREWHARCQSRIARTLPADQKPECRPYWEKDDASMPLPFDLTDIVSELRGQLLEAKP
smiles,measurement,setting,value
"CCN(CC)C(=O)/C(C#N)=C/c1cc(O)c(O)c([N+](=O)[O-])c1 [entacapone, (2E)-2-cyano-3-(3,4-dihydroxy-5-nitrophenyl)-N,N-diethylprop-2-enamide]",IC50,FTO protein,~9 µM
same,IC50,Huh-7 cell line,~15 µM
same,mean body weight less than that of control group,"[1]; after 8 weeks, high-fat diet, p<0.05",about 11%
same,decrease of LDL-c in serum compared to control group,"[1]; after 8 weeks, p<0.005",about 40%
same,adipose tissue change vs control (H&E staining),[1]; high-fat diet,reduced size of adipose cells
same,body-weight-normalized food intake vs control group,[1]; high-fat diet,no difference
same,hepatic tissue change vs control (H&E staining),[1]; high-fat diet,reduced level of liver steatosis
same,Difference in serum LDL-cholesterol (drug treatment vs control group),"[1]; rat serum, p-value 0.0005",−41.2%
same,Difference in serum Creatine kinase (drug treatment vs control group),"[1]; rat serum, p-value 0.2311",−17.6%
same,Difference in serum Glutamic-pyruvic transaminase (drug treatment vs control group),"[1]; rat serum, p-value 0.4962",−5.5%
same,Difference in serum Bilirubin (drug treatment vs control group),"[1]; rat serum, p-value 0.5814",−10.1%
same,Difference in serum Cholesterol (drug treatment vs control group),"[1]; rat serum, p-value 0.6455",−3.3%
same,Difference in serum Triglyceride (drug treatment vs control group),"[1]; rat serum, p-value 0.8023",−3.8%
same,Difference in serum Albumin ratio (drug treatment vs control group),"[1]; rat serum, p-value 0.9473",−0.063%
same,Difference in serum HDL-cholesterol (drug treatment vs control group),"[1]; rat serum, p-value 0.9972",−0.026%
same,mean lesion area in aortic sinuses less than that of control group,[2],28%
same,mean body weight gain less than that of control group,[3],about 11%
